# Measurements as given in article PMC11984586, “A novel spider toxin as a selective antagonist of the Kv1 subfamily of voltage-gated potassium channels through gating modulation” (The Journal of Biological Chemistry, 2025).
# Bridge positions count the residues as written; N and C are the ends. Peptide text beside a SMILES is read from it.
# Columns and labels:
# Assay type in all cases: cell-based
# [1] = molecular target: T1, mKv1.6 (Mus musculus, UniProt Q61923); test: Whole-cell patch clamp, Kv1.6 ionic current in CHO-K1 cells; details: +30 mV, 500 ms, holding −80 mV, mean ± SD, n = 4–7, read-out: IC50, inhibition of Kv1.6 current (full inhibition)
# T1 construct: expressed in transfected cells; host or cells: CHO-K1
# Experimental: The cDNA of hKv1.1, hKv1.2, hKv1.3, rKv1.4, hKv1.5, mKv1.6, and hKv1.7 were subcloned into mammalian expression vectors pcDNA3.1 or pCMV-blank vectors, as well as other plasmids described previously ([35]). Channel mutants were generated by site-directed mutations. Briefly, the parental channel plasmid was amplified using a pair of oppositely directed primers harboring the designed mutation site, with KOD Fx (TOYOBO Co, Ltd). The resulting PCR mix was treated with FastDigest DpnI (Thermo Fisher Scientific) to remove the methylated template. Ten microliters of the digested product was then used to transform 100 μl E. coli DH5α competent cells. […]
# (§1) CHO-K1 cells were selected for expressing Kv channels due to their lack of endogenous Kv channels, while HEK293 or ND7/23 cells were used for Nav and Cav channel expression. […] After 4 to 6 h transfection, cells were seeded onto poly-lysine–coated coverslips, and 24 to 36 h later, transfected cells were ready for patch-clamp analysis. […]
# (§2) For Kv current recordings, the bath solution contained (in mM) the following: 140 NaCl, 5 KCl, 1 MgCl2, 2 CaCl2, 10 glucose, and 10 Hepes (pH 7.3, adjusted with NaOH), and the pipette solution contained (in mM) the following: 140 KCl, 2.5 MgCl2, 11 EGTA, and 10 Hepes (pH 7.3, adjusted with KOH). […] The steady-state fast inactivation of Kv1.3 was measured using a two-pulses protocol. […]
# [2] = molecular target: T2, hKv1.1 (Homo sapiens, UniProt Q09470); test: Whole-cell patch clamp, Kv1.1 ionic current in CHO-K1 cells
# T2 construct: expressed in transfected cells; host or cells: CHO-K1
# Experimental: The cDNA of hKv1.1, hKv1.2, hKv1.3, rKv1.4, hKv1.5, mKv1.6, and hKv1.7 were subcloned into mammalian expression vectors pcDNA3.1 or pCMV-blank vectors, as well as other plasmids described previously ([35]). Channel mutants were generated by site-directed mutations. Briefly, the parental channel plasmid was amplified using a pair of oppositely directed primers harboring the designed mutation site, with KOD Fx (TOYOBO Co, Ltd). The resulting PCR mix was treated with FastDigest DpnI (Thermo Fisher Scientific) to remove the methylated template. Ten microliters of the digested product was then used to transform 100 μl E. coli DH5α competent cells. Transformants were randomly picked and sequenced to confirm the presence of the intended mutation.
# CHO-K1 cells were selected for expressing Kv channels due to their lack of endogenous Kv channels, while HEK293 or ND7/23 cells were used for Nav and Cav channel expression. CHO-K1 cells were cultured in a Dulbecco's modified Eagle's medium/Ham's F-12 nutrient mixture (DMEM-F12) medium, and HEK293T and ND7/23 cells in DMEM medium, all supplemented with 10% fetal bovine serum and 1% penicillin-streptomycin (all from Gibco, Thermo Fisher Scientific, Inc) under standard conditions (37 °C, 5% CO2, and saturated humidity). These cell lines were purchased from Stem Cell Bank, Chinese Academy of Sciences. Channel plasmids were cotransfected with pEGFP-N1 (encoding GFP) into the respective cells using lipofectamine 2000, following the manufacturer's instructions (Invitrogen, Thermo Fisher Scientific, Inc.). Nav1.9-GFP plasmid was transfected into ND7/23 using the X-tremeGENE HP DNA Transfection Reagent (Roche). After 4 to 6 h transfection, cells were seeded onto poly-lysine–coated coverslips, and 24 to 36 h later, transfected cells were ready for patch-clamp analysis.
# Patch clamp experiments were conducted using an electrophysiology platform comprising a MultiClamp 700B amplifier and an Axon Digidata 1550 AD/DA convertor (Axon Instruments). Data acquisition was performed with pClamp 10.5 software (Axon Instruments). All experiments were performed at room temperature.
# as §2, with “KOH). Series resistance was maintained below 10 MΩ and compensated to 80%. […] Whole cell conductance (G) at each depolarizing voltage (V) was determined using the equation: G = I/(V−Vrev), where I is the current amplitude, and Vrev is the reversal potential.” for “KOH).”
# [3] = molecular target: T3, Kv1.1/1.3 S5-S6 chimeric channel (Homo sapiens, UniProt Q09470, A352P/E350D/E351D/E353T/H355G/S369T/Y379H); test: Whole-cell patch clamp, chimeric channel; details: +30 mV, mean ± SD
# T3 construct: expressed in transfected cells; host or cells: CHO-K1
# Description: To investigate the structural determinants underlying the differential regulatory effects of MrVIII on Kv1 channels, we employed a chimeric channel strategy. Using Kv1.3 as the template, the S1-S2, S3-S4, and S5-S6 transmembrane helices and their respective linkers from Kv1.1 were inserted to generate chimeras, generating the Kv1.3/1.1 S1-S2, Kv1.3/1.1 S3-S4, and Kv1.3/1.1 S5-S6 chimeric channels. […] These findings indicate that the S3-S4 is the key determinant for the differential inhibition of Kv1.1 and Kv1.3 by MrVIII. To further validate this conclusion, we constructed a reverse chimeric channel using Kv1.1 as the template, inserting the corresponding regions from Kv1.3 into Kv1.1. […] This finding more directly illustrates the exchange of the channel's voltage-dependence phenotype in toxin inhibition by swapping this S3-S4 between Kv1.1 and Kv1.3. […] In addition to confirming the differential role of S3-S4 between Kv1.1 and Kv1.3, we also substituted the S3-S4 of Kv1.4 and Kv1.7 into Kv1.3 to analyze MrVIII's inhibition profile. […] The IC50 for Kv1.3/1.7 S3-S4 could not be fitted, and inhi%(495 ms) was only 23.1 ± 10.0% (Fig. S2, E and F). […]
# as §1
# For Kv current recordings, the bath solution contained (in mM) the following: 140 NaCl, 5 KCl, 1 MgCl2, 2 CaCl2, 10 glucose, and 10 Hepes (pH 7.3, adjusted with NaOH), and the pipette solution contained (in mM) the following: 140 KCl, 2.5 MgCl2, 11 EGTA, and 10 Hepes (pH 7.3, adjusted with KOH). […] Whole cell conductance (G) at each depolarizing voltage (V) was determined using the equation: G = I/(V−Vrev), where I is the current amplitude, and Vrev is the reversal potential. […]
# [4] = molecular target: T4, Kv1.7/A256T (Homo sapiens, UniProt Q96RP8, A256T); test: Whole-cell patch clamp, Kv1.7 point mutant
# T4 construct: expressed in transfected cells; host or cells: CHO-K1
# Description: This observation prompted further exploration of the potential function of the homologous residue in the Kv1.7 channel, where the corresponding site is occupied by an alanine.
# The cDNA of hKv1.1, hKv1.2, hKv1.3, rKv1.4, hKv1.5, mKv1.6, and hKv1.7 were subcloned into mammalian expression vectors pcDNA3.1 or pCMV-blank vectors, as well as other plasmids described previously ([35]). Channel mutants were generated by site-directed mutations. Briefly, the parental channel plasmid was amplified using a pair of oppositely directed primers harboring the designed mutation site, with KOD Fx (TOYOBO Co, Ltd). […]
# as §1, §2
# T2 sequence (Q09470 whole entry): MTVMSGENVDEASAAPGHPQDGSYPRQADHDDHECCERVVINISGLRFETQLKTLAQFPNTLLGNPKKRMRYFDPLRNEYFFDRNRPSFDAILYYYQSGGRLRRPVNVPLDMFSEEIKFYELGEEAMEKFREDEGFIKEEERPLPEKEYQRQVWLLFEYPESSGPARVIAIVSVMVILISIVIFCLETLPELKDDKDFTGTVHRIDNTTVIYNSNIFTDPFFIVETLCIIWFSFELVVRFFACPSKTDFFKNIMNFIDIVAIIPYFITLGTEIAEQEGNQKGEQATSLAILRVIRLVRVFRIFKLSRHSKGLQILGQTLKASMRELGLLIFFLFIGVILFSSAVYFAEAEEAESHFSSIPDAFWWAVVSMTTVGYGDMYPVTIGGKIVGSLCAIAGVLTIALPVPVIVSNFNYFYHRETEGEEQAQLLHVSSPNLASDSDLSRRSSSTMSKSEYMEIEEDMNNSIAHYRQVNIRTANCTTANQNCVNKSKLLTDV
# T4 sequence (Q96RP8 whole entry A256T): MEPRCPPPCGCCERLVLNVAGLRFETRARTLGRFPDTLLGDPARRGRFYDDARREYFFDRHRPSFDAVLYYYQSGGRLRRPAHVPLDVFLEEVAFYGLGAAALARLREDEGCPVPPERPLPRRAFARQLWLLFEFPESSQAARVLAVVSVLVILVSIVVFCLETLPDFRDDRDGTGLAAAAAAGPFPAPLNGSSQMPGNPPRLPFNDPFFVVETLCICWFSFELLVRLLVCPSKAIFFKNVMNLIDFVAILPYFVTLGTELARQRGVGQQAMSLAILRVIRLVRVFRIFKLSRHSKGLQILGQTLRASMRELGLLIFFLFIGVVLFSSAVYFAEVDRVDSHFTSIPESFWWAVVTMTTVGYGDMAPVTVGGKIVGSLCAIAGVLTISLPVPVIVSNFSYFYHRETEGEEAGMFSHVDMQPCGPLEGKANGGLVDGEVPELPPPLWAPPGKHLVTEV
# T3 sequence (Q09470 whole entry E350D/E351D/A352P/E353T/H355G/S369T/Y379H): as the sequence (Q09470 whole entry) above, with E350D, E351D, A352P, E353T, H355G, S369T, Y379H counted along it
# T1 sequence (Q61923 whole entry): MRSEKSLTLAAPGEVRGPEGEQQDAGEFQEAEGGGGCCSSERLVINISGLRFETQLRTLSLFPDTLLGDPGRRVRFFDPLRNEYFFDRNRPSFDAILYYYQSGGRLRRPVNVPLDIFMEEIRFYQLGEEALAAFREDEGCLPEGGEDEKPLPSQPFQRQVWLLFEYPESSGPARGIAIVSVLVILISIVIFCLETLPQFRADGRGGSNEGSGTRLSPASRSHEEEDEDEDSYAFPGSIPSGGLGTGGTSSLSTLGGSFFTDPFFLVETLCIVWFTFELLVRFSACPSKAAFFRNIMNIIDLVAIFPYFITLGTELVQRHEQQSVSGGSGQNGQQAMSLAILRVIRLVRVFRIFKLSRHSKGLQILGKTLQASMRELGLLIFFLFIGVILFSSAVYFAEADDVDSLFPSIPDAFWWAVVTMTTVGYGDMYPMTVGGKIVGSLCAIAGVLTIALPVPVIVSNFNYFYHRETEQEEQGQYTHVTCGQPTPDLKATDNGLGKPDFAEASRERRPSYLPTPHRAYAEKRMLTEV
smiles,measurement,setting,value
"CC[C@H](C)[C@@H]1NC(=O)[C@H](Cc2ccc(O)cc2)NC(=O)[C@H](CCC(N)=O)NC(=O)[C@@H]2CCCN2C(=O)[C@@H]2CSSC[C@H](NC(=O)[C@H](C)NC(=O)[C@H](CO)NC(=O)[C@H](CCC(=O)O)NC(=O)[C@H](CCC(=O)O)NC(=O)[C@@H](N)[C@@H](C)O)C(=O)NCC(=O)NCC(=O)N[C@@H](Cc3ccccc3)C(=O)N[C@@H](CC(N)=O)C(=O)N[C@@H](C)C(=O)N[C@@H](CCCNC(=N)N)C(=O)N[C@H]3CSSC[C@H](NC1=O)C(=O)N[C@@H](CCCCN)C(=O)NCC(=O)N[C@@H](Cc1c[nH]c4ccccc14)C(=O)N[C@@H](CCCNC(=N)N)C(=O)N[C@@H]([C@@H](C)O)C(=O)N[C@@H](CCCCN)C(=O)N[C@@H](CCCNC(=N)N)C(=O)N[C@H](C(=O)N[C@@H](CC(C)C)C(=O)N[C@@H](CC(N)=O)C(=O)N1CCC[C@H]1C(=O)O)CSSC[C@H](NC(=O)[C@H](CCCCN)NC(=O)[C@H](Cc1c[nH]cn1)NC(=O)[C@H](CC(C)C)NC(=O)[C@@H]1CCCN1C3=O)C(=O)N2 [MrVIII] (H-TEESACGGFNARCPLHKCCPQYICKGWRTKRCLNP-OH; disulfide 6-19, 13-24, 18-32; N-terminus and C-terminus assumed)",IC50,[1],13.4 ± 6.7 nM
same,"inhi%(495 ms), Kv1.1 current","[2]; 10 μM (saturating), current at 495 ms, +30 mV, mean ± SD, SD",23.9 ± 18.5%
same,inhibitory effect on Kv1.1 current at 495 ms once depolarizing voltage exceeded +40 mV,"[2]; 10 μM MrVIII, I-V protocol",negligible
same,inhibition at 10 µM,"[2]; CHO-K1, 10 μM MrVIII, I-V protocol, holding −80 mV, mean ± SD, n = 5–7, SD, read-out: inhibition of Kv1.1 current at 50 ms at +100 mV",11.6 ± 7.9%
same,IC50,"[2]; current measured at 50 ms of a 500 ms depolarization to +30 mV, mean ± SD, n = 4–7, SD",50.9 ± 21.7 nM
same,IC50,"[3]; current at 50 ms, n = 4-5",48.9 ± 26.6 nM
same,"inhi%(495 ms), Kv1.1/1.3 S5-S6 current",[3]; current at 495 ms,50.1 ± 19.9%
same,IC50,"[4]; +30 mV, mean ± SD, n = 6, SD, read-out: IC50, Kv1.7/A256T current (full inhibition)",138 ± 50.3 nM
same,potency on Kv1.7/A256T weaker than on the Kv1.3 channel,[4]; ratio of IC50 values,approximately 28 fold
